Results on 23 compounds are retold here after patent US11702404B2, “GLP-1R modulating compounds” (priority 2019, dated 2023).

A word on the EC50: it is the midpoint of the concentration-response curve.

One data set has as its target GLP-1R (Homo sapiens, UniProt P43220). Nature of the data set: GLP-1R activation: cAMP increase in CHO cells stably expressing GLP-1R. It counts as cell-based. Conditions: cAMP increase, CHO cells stably expressing GLP-1R, 10 point dose response, 30 minutes incubation; read-out: EC50.
Data set [1] is described as follows: Microsomal stability, human liver microsomes (predicted hepatic clearance). Conditions: predicted from in vitro microsomal stability data.

Structures are written as SMILES.

Chain of GLP-1R (P43220 24-463): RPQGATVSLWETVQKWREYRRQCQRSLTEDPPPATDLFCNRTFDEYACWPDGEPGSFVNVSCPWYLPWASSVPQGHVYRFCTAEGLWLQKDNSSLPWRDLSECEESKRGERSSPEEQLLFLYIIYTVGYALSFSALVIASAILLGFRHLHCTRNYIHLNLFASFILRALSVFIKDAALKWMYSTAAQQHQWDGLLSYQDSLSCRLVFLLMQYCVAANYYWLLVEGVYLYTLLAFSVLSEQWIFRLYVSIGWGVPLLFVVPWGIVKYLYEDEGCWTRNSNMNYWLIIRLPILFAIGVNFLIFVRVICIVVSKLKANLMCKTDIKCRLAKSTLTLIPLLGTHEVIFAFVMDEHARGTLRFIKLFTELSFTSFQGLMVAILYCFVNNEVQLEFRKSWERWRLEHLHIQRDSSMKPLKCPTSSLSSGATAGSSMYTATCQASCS

As to `COCCn1c(Cc2ccc(-c3cccc(OCc4ccc(C#N)cc4F)n3)c(C)c2)nc2ccc(C(=O)NS(=O)(=O)C3CC3)cc21` [Example 53, 2-(4-(6-((4-cyano-2-fluorobenzyl)oxy)pyridin-2-yl)-3-methylbenzyl)-N-(cyclopropylsulfonyl)-1-(2-methoxyethyl)-1H-benzo[d]imidazole-6-carboxamide], at GLP-1R, the EC50 is 1010 nM. The “Predicted Hepatic Clearance (Pred. Cl.)” value in data set [1] was 9 mL/min/kg.
Take `COCCn1c(Cc2ccc(-c3cccc(OCc4ccc(C#N)cc4F)n3)cn2)nc2ccc(C(=O)NS(=O)(=O)C3CC3)cc21` [Example 54, 2-((6-((4-cyano-2-fluorobenzyl)oxy)-[2,3′-bipyridin]-6′-yl)methyl)-N-(cyclopropylsulfonyl)-1-(2-methoxyethyl)-1H-benzo[d]imidazole-6-carboxamide]: the EC50 at GLP-1R is 806 nM. Besides, the “Predicted Hepatic Clearance (Pred. Cl.)” value in data set [1] was 3.83 mL/min/kg.
For `N#CCC1(Cn2c(Cc3ccc(-c4cccc(OCc5ccc(C#N)cc5F)n4)cc3F)nc3ccc(C(=O)NS(=O)(=O)C4CC4)cc32)CC1` [Example 55, 2-(4-(6-((4-cyano-2-fluorobenzyl)oxy)pyridin-2-yl)-2-fluorobenzyl)-1-((1-(cyanomethyl)cyclopropyl)methyl)-N-(cyclopropylsulfonyl)-1H-benzo[d]imidazole-6-carboxamide], in that order: 3.4 nM and 4.33 mL/min/kg.
Take `N#Cc1ccc(COc2cccc(-c3ccc(Cc4nc5ccc(C(=O)NS(=O)(=O)C6CC6)cc5n4CC4(CF)CC4)c(F)c3)n2)c(F)c1` [Example 57, 2-(4-(6-((4-cyano-2-fluorobenzyl)oxy)pyridin-2-yl)-2-fluorobenzyl)-N-(cyclopropylsulfonyl)-1-((1-(fluoromethyl)cyclopropyl)methyl)-1H-benzo[d]imidazole-6-carboxamide]: on GLP-1R, the EC50 came out at 6.7 nM. In addition, in data set [1], the “Predicted Hepatic Clearance (Pred. Cl.)” value was less than 1.83 mL/min/kg.
For `COCCn1c(Cc2ccc(-c3cccc(OCc4ccc(C#N)cc4F)n3)cc2C)nc2ccc(C(=O)O)cc21` [Example 59, 2-(4-(6-((4-cyano-2-fluorobenzyl)oxy)pyridin-2-yl)-2-methylbenzyl)-1-(2-methoxyethyl)-1H-benzo[d]imidazole-6-carboxylic acid], in that order: 5.6 nM and less than 1.83 mL/min/kg.
For `COCCn1c(Cc2ncc(-c3cccc(OCc4ccc(C#N)cc4F)n3)cc2F)nc2ccc(C(=O)O)cc21` [Example 60, 2-{[5-[6-[(4-cyano-2-fluoro-phenyl)methoxy]-2-pyridyl]-3-fluoro-2-pyridyl]methyl}-3-(2-methoxyethyl)benzimidazole-5-carboxylic acid], in that order: 30 nM and less than 1.83 mL/min/kg.
For `COCCn1c(Cn2ccc(-c3cccc(OCc4ccc(C#N)cc4F)n3)cc2=O)nc2ccc(C(=O)O)cc21` [Example 61, 2-((6-((4-cyano-2-fluorobenzyl)oxy)-2′-oxo-[2,4′-bipyridin]-1′(2′H)-yl)methyl)-1-(2-methoxyethyl)-1H-benzo[d]imidazole-6-carboxylic acid], in that order: 18 nM and less than 1.83 mL/min/kg.
As to `COCCn1c(Cc2ccc(-c3nc(OCc4ccc(C#N)cc4F)ns3)cc2F)nc2ccc(C(=O)O)cc21` [Example 62, 2-(4-(3-((4-cyano-2-fluorobenzyl)oxy)-1,2,4-thiadiazol-5-yl)-2-fluorobenzyl)-1-(2-methoxyethyl)-1H-benzo[d]imidazole-6-carboxylic acid], the EC50 on GLP-1R worked out at 1430 nM. Moreover, the “Predicted Hepatic Clearance (Pred. Cl.)” value in data set [1] is 6.7 mL/min/kg.
For `COCCn1c(Cc2ccc(-c3nsc(OCc4ccc(C#N)cc4F)n3)cc2F)nc2ccc(C(=O)O)cc21` [Example 63, 2-{[4-[5-[(4-cyano-2-fluoro-phenyl)methoxy]-1,2,4-thiadiazol-3-yl]-2-fluoro-phenyl]methyl}-3-(2-methoxyethyl)benzimidazole-5-carboxylic acid], in that order: 164 nM and less than 1.83 mL/min/kg.
As to `COCCn1c(Cc2ccc(-c3cccc(OCc4ccc(C#N)cc4F)n3)cc2N)nc2ccc(C(=O)O)cc21` [Example 64, 2-(2-amino-4-(6-((4-cyano-2-fluorobenzyl)oxy)pyridin-2-yl)benzyl)-1-(2-methoxyethyl)-1H-benzo[d]imidazole-6-carboxylic acid], the EC50 on GLP-1R was determined as 67 nM. The “Predicted Hepatic Clearance (Pred. Cl.)” value in data set [1] is 3.5 mL/min/kg.
For the compound `COCCn1c(Cc2ccc(-c3cccc(OCc4ccc(C#N)cc4F)n3)cc2NC(C)=O)nc2ccc(C(=O)O)cc21` [Example 65, 2-(2-Acetamido-4-(6-((4-cyano-2-fluorobenzyl)oxy)pyridin-2-yl)benzyl)-1-(2-methoxyethyl)-1H-benzo[d]imidazole-6-carboxylic acid], the EC50 on GLP-1R came to 1230 nM. Further, the “Predicted Hepatic Clearance (Pred. Cl.)” value in data set [1] is 7.17 mL/min/kg.
For `COCCn1c(Cc2ccc(-c3cccc(OCc4ccc(C#N)cc4F)n3)cc2NS(C)(=O)=O)nc2ccc(C(=O)O)cc21` [Example 66, 2-(4-(6-((4-Cyano-2-fluorobenzyl)oxy)pyridin-2-yl)-2-(methylsulfonamido)benzyl)-1-(2-methoxyethyl)-1H-benzo[d]imidazole-6-carboxylic acid], in that order: 1030 nM and 12.3 mL/min/kg.
With `COCCn1c(Cc2ccc(-c3cccc(OCc4ccc(C#N)cc4F)n3)cc2F)nc2ncc(C(=O)O)cc21` [Example 71, 2-(4-(6-((4-cyano-2-fluorobenzyl)oxy)pyridin-2-yl)-2-fluorobenzyl)-1-(2-methoxyethyl)-1H-imidazo[4,5-b]pyridine-6-carboxylic], the EC50 on GLP-1R was determined as 1.34 nM. The “Predicted Hepatic Clearance (Pred. Cl.)” value in data set [1] is less than 1.83 mL/min/kg.
For `COCCn1c(Cc2c(F)cc(-c3csnc3OCc3ccc(Cl)cc3F)cc2F)nc2ccc(C(=O)O)cc21` [Example 72, 2-(4-(3-((4-chloro-2-fluorobenzyl)oxy)isothiazol-4-yl)-2,6-difluorobenzyl)-1-(2-methoxyethyl)-1H-benzo[d]imidazole-6-carboxylic acid], in that order: 23.8 nM and 12.3 mL/min/kg.
As to `COCCn1c(Cc2ccc(-c3nc(OCc4ccc(C#N)cc4F)c(F)cc3F)cc2F)nc2ccc(C(=O)O)cc21` [Example 73, 2-(4-(6-((4-cyano-2-fluorobenzyl)oxy)-3,5-difluoropyridin-2-yl)-2-fluorobenzyl)-1-(2-methoxyethyl)-1H-benzo[d]imidazole-6-carboxylic acid], on GLP-1R, the EC50 stood at 6.13 nM. Further, the “Predicted Hepatic Clearance (Pred. Cl.)” value in data set [1] was 4.5 mL/min/kg.
With `COc1cc(Cl)ccc1COc1cccc(-c2ccc(Cc3nc4ccc(C(=O)O)cc4n3CC3(CC#N)CC3)cc2F)n1` [Example 74, 2-(4-(6-((4-chloro-2-methoxybenzyl)oxy)pyridin-2-yl)-3-fluorobenzyl)-1-((1-(cyanomethyl)cyclopropyl)methyl)-1H-benzo[d]imidazole-6-carboxylic acid], the EC50 on GLP-1R amounted to 0.46 nM. In data set [1], the “Predicted Hepatic Clearance (Pred. Cl.)” value is 13.2 mL/min/kg.
For the compound `COc1cc(Cl)ccc1COc1nccc(-c2ccc(Cc3nc4ccc(C(=O)O)cc4n3CC3(CF)CC3)cc2F)n1` [Example 75, 2-(4-(2-((4-chloro-2-methoxybenzyl)oxy)pyrimidin-4-yl)-3-fluorobenzyl)-1-((1-(fluoromethyl)cyclopropyl)methyl)-1H-benzo[d]imidazole-6-carboxylic acid], the EC50 on GLP-1R stood at 0.6 nM. Besides, the “Predicted Hepatic Clearance (Pred. Cl.)” value in data set [1] is 13.8 mL/min/kg.
`COCCn1c(Cc2c(F)cc(-c3csnc3OCc3ccc(C#N)cc3F)cc2F)nc2ccc(C(=O)O)cc21` [Example 76, 2-(4-(3-((4-cyano-2-fluorobenzyl)oxy)isothiazol-4-yl)-2,6-difluorobenzyl)-1-(2-methoxyethyl)-1H-benzo[d]imidazole-6-carboxylic acid]: the EC50 on GLP-1R is 22.3 nM. Besides, the “Predicted Hepatic Clearance (Pred. Cl.)” value in data set [1] is 13.4 mL/min/kg.
With `COCCn1c(Cc2ccc(-c3cc(F)cc(OCc4ccc(C#N)cc4OC)n3)cc2F)nc2ccc(C(=O)O)cc21` [Example 77, 2-(4-(6-((4-cyano-2-methoxybenzyl)oxy)-4-fluoropyridin-2-yl)-2-fluorobenzyl)-1-(2-methoxyethyl)-1H-benzo[d]imidazole-6-carboxylic], the EC50 at GLP-1R was found to be 0.19 nM. In addition, the “Predicted Hepatic Clearance (Pred. Cl.)” value in data set [1] was 9.17 mL/min/kg.
For `N#CCC1(Cn2c(Cc3ccc(-c4ccnc(OCc5ccc(Cl)cc5F)n4)cc3F)nc3ccc(C(=O)O)cc32)CC1` [Example 79, 2-(4-(2-((4-chloro-2-fluorobenzyl)oxy)pyrimidin-4-yl)-2-fluorobenzyl)-1-((1-(cyanomethyl)cyclopropyl)methyl)-1H-benzo[d]imidazole-6-carboxylic acid], in that order: 1.04 nM and 8.83 mL/min/kg.
For `COCCn1c(Cc2ccc(-c3conc3OCc3ccc(C#N)cc3F)cc2F)nc2ccc(C(=O)O)cc21` [Example 80, 2-(4-(3-((4-cyano-2-fluorobenzyl)oxy)isoxazol-4-yl)-2-fluorobenzyl)-1-(2-methoxyethyl)-1H-benzo[d]imidazole-6-carboxylic acid], in that order: 2630 nM and 5.17 mL/min/kg.
On to `COCCn1c(Cc2ccc(-c3nc(OCc4ccc(C#N)cc4F)ccc3C#N)cc2F)nc2ccc(C(=O)O)cc21` [Example 81, 2-(4-(3-cyano-6-((4-cyano-2-fluorobenzyl)oxy)pyridin-2-yl)-2-fluorobenzyl)-1-(2-methoxyethyl)-1H-benzo[d]imidazole-6-carboxylic acid], for which, on GLP-1R, the EC50 came out at 291 nM. Besides, the “Predicted Hepatic Clearance (Pred. Cl.)” value in data set [1] is 10.7 mL/min/kg.
For `COCCn1c(Cc2ccc(-c3ccc(N)c(OCc4ccc(C#N)cc4F)c3)cc2F)nc2ccc(C(=O)O)cc21` [Example 82, 2-((4′-amino-3′-((4-cyano-2-fluorobenzyl)oxy)-3-fluoro-[1,1′-biphenyl]-4-yl)methyl)-1-(2-methoxyethyl)-1H-benzo[d]imidazole-6-carboxylic acid], in that order: 264 nM and 3.67 mL/min/kg.
